Patent US20060094780A1, “Novel antibiotic compounds” (priority 2000, published 2006)

Tests used:
Assay type in all cases: cell-based
[1] = system: Bacillus subtilis ATCC strain 6633; assay: NCCLS broth microdilution test, minimum inhibitory concentration; conditions: for minimum inhibitory concentration / MIC: B. subtilis; for antimicrobial activity / potency (in words): against the target organism B. subtilis; for MIC: Bacillus subtilis, ATCC6633
Description: Minimum inhibitory concentrations with Bacillus subtilis ATCC strain 6633 were determined using the National Committee for Clinical Laboratory Standards broth microdilution test (NCCLS, 2000. NCCLS Document M7-A5—Methods for Dilution Antimicrobial Susceptibility Tests for Bacteria that Grow Aerobically, Approved Standard—Fifth Edition). The test was standardised using penicillin G and gentamicin with Staphyloccous aureus ATCC strains 29213 and 25923 and Enterococcus faecalis ATCC strain 29212. Results of standardisation were assessed according to the NCCLS standards (NCCLS, 2000. NCCLS Document M100-S10(M7)—Performance Standards for Antimicrobial Susceptibility Testing; Tenth Informational Supplement (Aerobic Dilution). NCCLS, Wayne, Pa.).

[2] = system: Bacillus subtilis ATCC strain 6633; assay: filter paper disk / disc diffusion assay on Bacillus subtilis plate
Description: The Bacillus subtilis ATCC strain 6633 was used at 9.2 mL of a log phase culture with […] per 200 mL of Luria-Bertani medium containing 1.5% (w/v) agar. The plate was incubated at 28° C. for 24 hours and the diameter of the clearing zone was measured. Dilutions of the extract and fractions from HPLC chromatography were tested in the same way. In some cases, fractions from the column were tested by evaporating them to dryness, redissolving in methanol and simply spotting 10 μL of the methanolic sample directly onto the bacteriological plate and proceeding as described.

[3] = system: NCl-H460, a human-derived small cell lung carcinoma line; assay: mammalian cell growth, WST-1 proliferation assay; conditions: concentrations up to 100 μg/mL, 19 hours at 37° C.
Description: (§1) Effects on mammalian cell growth were determined by exposing cultures of two mammalian neoplastic cell lines (SP2/0—Ag8, a non-secreting mouse myeloma cell line derived from Balb/C mice, and NCl-H460, a human-derived […] lung carcinoma line) to fixed dilutions of the methanolic extract of N. triodiae or to fixed concentrations of fraction 23, (6) for 19 hours at 37° C. Cells were grown in wells of sterile 96-well tissue culture cluster plates by standard methods. Cell growth was estimated using the Cell Proliferation Reagent WST-1 (Roche Diagnostics) according to the manufacturer's instructions and proliferation data were compared with those from untreated control wells.

[4] = system: SP2/0—Ag8, a non-secreting mouse myeloma cell line; assay: mammalian cell growth, WST-1 proliferation assay; conditions: concentrations up to 30 μg/mL, 19 hours at 37° C.
Description: as §1

[5] = unknown concentration and mass of the compound, disc diffusion assay

Compound | antimicrobial activity / potency (in words) [1] | minimum inhibitory concentration ([1]; as restated in the discussion) | MIC ([1]; broth microdilution, estimated) | clear zone diameter [2, 5] | other results
1(15),8(19)-trinervitadiene-3α,5α,18-triol 3,5,18-triacetate [Compound 10] | reduced but detectable antimicrobial activity | – | – | – | minimum inhibitory concentration ([1]; broth microdilution, estimated): > 50 µg/mL; antimicrobial activity / potency (in words) ([1]; listed as triacetate): active, albeit less potent than the diols or triol; clear zone diameter ([2]; 5 μg of compound, disc diffusion assay): 11 mm
C=C1CCC[C@H](C)CCC2=C(C)[C@@H]3[C@H]1C[C@@H](O)[C@]3(CO)[C@@H](O)C2 [Compound 6, 1(15),8(19)-trinervitadiene-3α,5α,18-triol] | moderately good antimicrobial potency | ≤ 50 parts per million | ≤ 50 µg/mL | – | inhibitory effect on proliferation of NCl-H460 cells [3]: no detectable inhibitory effect; inhibitory effect on proliferation of SP2/0 cells [4]: no detectable inhibitory effect; antimicrobial activity of extracts and HPLC fractions (in words) ([2]; B. subtilis plate test): antimicrobial activity was detected
C=C1CCC[C@H](C)CCC2=C(C)[C@@H]3[C@H]1C[C@@H](O)[C@]3(C)[C@@H](O)C2 [Compound 7, 1(15),8(19)-trinervitadiene-3α,5α-diol] | reduced but detectable antimicrobial activity | – | ≤ 50 µg/mL | – | zone of inhibition at 5 µg/disc ([2]; Bacillus subtilis, ATCC6633, 5 μg of compound, disc diffusion assay, read-out: clear zone diameter): 7 mm
C=C1CCC[C@H](C)CCC2=C(C)[C@@H]3[C@H]1C[C@@H](OC(C)=O)[C@]3(CO)[C@@H](O)C2 [Compound 8, 1(15),8(19)-trinervitadiene-3α,5α,18-triol 5-acetate] | reduced but detectable antimicrobial activity | – | > 50 µg/mL | 15 mm | antimicrobial activity / potency (in words) ([1]; listed as monoacetate): active, albeit less potent than the diols or triol
CC1=C2CC[C@@H](C)CC/C=C(/C)[C@@H]3CC[C@@](C)([C@H]13)[C@@H](O)[C@@H]2O [Compound 9, 1(15),8(9)-trinervitadiene-2β,3α-diol] | – | ≤ 25 parts per million | ≤ 25 µg/mL | 15 mm | antimicrobial potency relative to the triol (6) and diol (7) ([1]; fold more potent): 2-4 times; significant inhibitory activity as low as ([1]; lowest concentration with significant inhibitory activity): 12 parts per million
